Experimental data as given in patent publication US9895314B2, “Delayed release pharmaceutical formulation containing porous carrier particles for colon targeting” (Tillotts Pharma AG, priority 2014, dated 2018).

Assay: Accelerated stability study, compatibility of MBZ and FCC (HPLC-UV)
Assay type: physicochemical
Settings: drug loaded FCC with 20 and 50% drug content, 25° C., 40° C. and 60° C., 25 days
Procedure: The compatibility of MBZ and FCC was investigated by an accelerated stability study. Drug loaded FCC particles with 20 and 50% drug content were stored at 25° C., 40° C. and 60° C. over a period of 25 days. On several days the MBZ content was analyzed by HPLC-UV.

## Cc1ncc([N+](=O)[O-])n1CCOC(=O)c1ccccc1 [MBZ, metronidazole benzoate]
  degradation products from hydrolysis (metronidazole, benzoic acid) detected: not any degradation products
